# Test results published in paper PMC2882332, “Species Used for Drug Testing Reveal Different Inhibition Susceptibility for 17beta-Hydroxysteroid Dehydrogenase Type 1” (PLoS ONE, 2010).
# Columns and labels:
# [1] = molecular target: T1, mouse 17β-HSD 1 (Mus musculus, UniProt P51656); assay: In vitro enzymatic activity, recombinant mouse 17β-HSD 1; assay type: biochemical; conditions: 2 µM compound, 15 nM 3H-estrone, read-out: Observed % inhibition
# T1 construct: Full length cDNAs of several 17β-HSDs type 1 originating from different species were cloned; made in house; host or cells: E.coli BL21 DE3 Codon Plus RP
# T1 sequence (P51656 1-344): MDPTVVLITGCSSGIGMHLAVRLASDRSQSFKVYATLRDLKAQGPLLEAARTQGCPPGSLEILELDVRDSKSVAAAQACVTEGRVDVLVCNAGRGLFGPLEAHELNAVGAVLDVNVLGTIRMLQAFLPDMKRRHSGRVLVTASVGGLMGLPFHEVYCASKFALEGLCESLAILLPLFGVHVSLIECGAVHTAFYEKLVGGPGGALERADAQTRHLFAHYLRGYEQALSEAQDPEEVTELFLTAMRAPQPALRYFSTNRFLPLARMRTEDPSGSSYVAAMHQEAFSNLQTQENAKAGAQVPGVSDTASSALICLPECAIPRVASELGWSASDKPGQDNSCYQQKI
# Source text: (§1) Full length cDNAs of several 17β-HSDs type 1 originating from different species were cloned either into the pQE30 vector (human 17β-HSD 1, coding for acc. no. NP_000404) for expression as His-Tag protein or into a modified pGex-2T vector [63] (mouse 17β-HSD 1, acc. no. NP_034605; rat 17β-HSD 1, acc. no. NP_036983; marmoset 17β-HSD 1, acc. no. AAG01115; porcine 17β-HSD 1, acc. no. NP_001121944) for expression as GST-fusion proteins. The marmoset 17β-HSD 1 enzyme sequence was updated by the missing N-terminal part (AF272013) and the new porcine sequence was submitted to GenBank (NP_001121944). Human 17β-HSDs 2, 4, 5 (AKR1C3, the latter kindly provided by Dr. T. Penning) and 7 were all cloned into the modified pGEX-2T vector. For 17β-HSD 4 only the SDR-domain converting the steroids was subcloned. Plasmids were transformed into E.coli BL21 DE3 Codon Plus RP (Stratagene) and enzyme expression was induced by 0.5 mM IPTG. After 4h incubation at 37°C with continuous shaking bacteria were pelleted by centrifugation at 10.000×g. Pellets were stored until use at −20°C.
# (§2) The bacteria containing recombinant enzymes were resuspended in PBS and enzymatic assays were performed in 100 mM sodium phosphate buffer at pH 6.6 for the reductive reaction and at pH 7.7 for the oxidative reaction. […] All substrates were purchased from NEN/Perkin Elmer. The cofactors NADPH (Sigma; for reductive reactions) and NAD^+ (Serva, for oxidative reactions) were used at final concentrations of 0.5 mg/ml. […] The incubation at 37°C was stopped with 0.21 M ascorbic acid in methanol∶acetic acid 99∶1 (v∶v) after the time needed to convert approximately 30% of the substrate in a control assay with 1% DMSO, without inhibitor candidates. […] The solvent used was acetonitrile∶water (43∶57, v∶v) at a flow rate of 1 ml/min. Radioactivity was detected by online-scintillation counting (Berthold LB506D) after mixing with ReadyFlowIII (Beckman). Conversion was calculated from integration of substrate and product peaks. […] All assays were run in duplicates of two independent experiments and mean values are reported. The IC50 values were determined by the One Ligand Binding model of SigmaPlot kinetics module.
# [2] = molecular target: T2, marmoset 17β-HSD 1 (Callithrix jacchus, UniProt Q9GME2); assay: In vitro enzymatic activity, recombinant marmoset 17β-HSD 1; assay type: biochemical; conditions: marmoset 17β-HSD 1; 2 µM compound; 15 nM 3H-estrone; read-out: Observed % inhibition
# T2 sequence (Q9GME2 1-314): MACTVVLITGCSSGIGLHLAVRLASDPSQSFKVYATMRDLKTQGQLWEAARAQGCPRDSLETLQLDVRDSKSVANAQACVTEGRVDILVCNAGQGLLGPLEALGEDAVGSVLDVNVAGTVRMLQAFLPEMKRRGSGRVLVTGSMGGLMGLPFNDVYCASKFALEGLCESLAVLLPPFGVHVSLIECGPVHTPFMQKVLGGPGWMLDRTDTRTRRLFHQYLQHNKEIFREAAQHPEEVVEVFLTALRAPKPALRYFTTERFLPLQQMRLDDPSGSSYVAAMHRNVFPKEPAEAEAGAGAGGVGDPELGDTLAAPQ
# Source text: as §1, §2
# [3] = molecular target: T3, rat 17β-HSD 1 (Rattus norvegicus, UniProt P51657); assay: In vitro enzymatic activity, recombinant rat 17β-HSD 1; assay type: biochemical; conditions: 2 µM compound, 15 nM 3H-estrone, read-out: Observed % inhibition
# T3 construct: Full length cDNAs of several 17β-HSDs type 1 originating from different species were cloned; made in house; host or cells: E.coli BL21 DE3 Codon Plus RP
# T3 sequence (P51657 1-344): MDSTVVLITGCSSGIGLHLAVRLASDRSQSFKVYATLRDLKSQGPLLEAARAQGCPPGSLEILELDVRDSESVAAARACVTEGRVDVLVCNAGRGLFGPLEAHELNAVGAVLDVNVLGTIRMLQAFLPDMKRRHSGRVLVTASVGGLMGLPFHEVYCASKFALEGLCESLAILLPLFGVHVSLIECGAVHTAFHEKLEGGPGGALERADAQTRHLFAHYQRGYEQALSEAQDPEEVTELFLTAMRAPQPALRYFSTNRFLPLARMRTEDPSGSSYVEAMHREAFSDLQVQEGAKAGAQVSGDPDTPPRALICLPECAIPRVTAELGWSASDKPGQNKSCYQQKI
# Source text: as §1, §2
# [4] = tested on: 17β-HSD 1 orthologs of five species; assay: In vitro enzymatic activity, 17β-HSD 1 orthologs of five species taken together; assay type: biochemical, human, marmoset, mouse, pig, rat; conditions: average over the 17β-HSD 1 orthologs of the species; 2 µM compound
# [5] = molecular target: T4, porcine 17β-HSD 1 (Sus scrofa, UniProt B2X0A4); assay: In vitro enzymatic activity, recombinant porcine 17β-HSD 1; assay type: biochemical, pig; conditions: read-out: Observed % inhibition
# T4 sequence (B2X0A4 1-321): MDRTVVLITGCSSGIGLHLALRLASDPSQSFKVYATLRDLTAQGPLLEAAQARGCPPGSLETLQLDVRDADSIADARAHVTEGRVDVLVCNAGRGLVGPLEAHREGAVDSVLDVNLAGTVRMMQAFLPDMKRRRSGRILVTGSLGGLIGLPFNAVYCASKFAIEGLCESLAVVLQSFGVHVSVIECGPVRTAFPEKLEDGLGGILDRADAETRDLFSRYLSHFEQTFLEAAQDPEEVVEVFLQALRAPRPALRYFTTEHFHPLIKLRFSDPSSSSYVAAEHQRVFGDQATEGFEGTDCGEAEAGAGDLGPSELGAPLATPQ
# Source text: as §1, §2
# [6] = molecular target: T5, human 17β-HSD 1 (Homo sapiens, UniProt P14061); assay: In vitro enzymatic activity, recombinant human 17β-HSD 1 (estrone reduction); assay type: biochemical; conditions: pH 6.6, read-out: Observed % inhibition
# T5 construct: Full length cDNAs of several 17β-HSDs type 1 originating from different species were cloned; made in house; host or cells: E.coli BL21 DE3 Codon Plus RP
# T5 sequence (P14061 1-328): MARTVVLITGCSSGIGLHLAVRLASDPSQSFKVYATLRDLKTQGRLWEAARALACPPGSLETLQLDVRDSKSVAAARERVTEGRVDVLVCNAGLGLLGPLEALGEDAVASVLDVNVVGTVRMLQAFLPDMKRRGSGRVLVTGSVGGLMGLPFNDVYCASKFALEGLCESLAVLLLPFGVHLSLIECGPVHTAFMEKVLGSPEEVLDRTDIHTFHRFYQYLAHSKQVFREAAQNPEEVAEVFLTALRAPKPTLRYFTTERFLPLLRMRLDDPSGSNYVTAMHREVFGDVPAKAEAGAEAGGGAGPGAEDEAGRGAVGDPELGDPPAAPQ
# Source text: as §1, §2
structure (smiles),measurement,setting,value
"C[C@]12CC[C@@H]3c4ccc(O)cc4CC[C@H]3[C@@H]1CCC2=O [Compound 6, estrone, reference compound]",inhibition at 2 µM,[1],101%
same,inhibition at 2 µM,[2],110%
same,inhibition at 2 µM,[3],79.1%
same,"Observed % inhibition, average",[4],95.4%
same,inhibition at 2 µM,[5],86.3%
same,inhibition at 2 µM,[6],101%
